Results taken from patent US6395745B1, “Alkaloid halide salts of swainsonine and methods of use” (priority 1997, dated 2002).

Target: T1, Golgi mannosidase II in MDAY-D2 tumor cells (Mus musculus, UniProt P27046)
T1 construct: endogenous in cells; host or cells: MDAY-D2 tumor cells
T1 sequence (P27046 1-1150): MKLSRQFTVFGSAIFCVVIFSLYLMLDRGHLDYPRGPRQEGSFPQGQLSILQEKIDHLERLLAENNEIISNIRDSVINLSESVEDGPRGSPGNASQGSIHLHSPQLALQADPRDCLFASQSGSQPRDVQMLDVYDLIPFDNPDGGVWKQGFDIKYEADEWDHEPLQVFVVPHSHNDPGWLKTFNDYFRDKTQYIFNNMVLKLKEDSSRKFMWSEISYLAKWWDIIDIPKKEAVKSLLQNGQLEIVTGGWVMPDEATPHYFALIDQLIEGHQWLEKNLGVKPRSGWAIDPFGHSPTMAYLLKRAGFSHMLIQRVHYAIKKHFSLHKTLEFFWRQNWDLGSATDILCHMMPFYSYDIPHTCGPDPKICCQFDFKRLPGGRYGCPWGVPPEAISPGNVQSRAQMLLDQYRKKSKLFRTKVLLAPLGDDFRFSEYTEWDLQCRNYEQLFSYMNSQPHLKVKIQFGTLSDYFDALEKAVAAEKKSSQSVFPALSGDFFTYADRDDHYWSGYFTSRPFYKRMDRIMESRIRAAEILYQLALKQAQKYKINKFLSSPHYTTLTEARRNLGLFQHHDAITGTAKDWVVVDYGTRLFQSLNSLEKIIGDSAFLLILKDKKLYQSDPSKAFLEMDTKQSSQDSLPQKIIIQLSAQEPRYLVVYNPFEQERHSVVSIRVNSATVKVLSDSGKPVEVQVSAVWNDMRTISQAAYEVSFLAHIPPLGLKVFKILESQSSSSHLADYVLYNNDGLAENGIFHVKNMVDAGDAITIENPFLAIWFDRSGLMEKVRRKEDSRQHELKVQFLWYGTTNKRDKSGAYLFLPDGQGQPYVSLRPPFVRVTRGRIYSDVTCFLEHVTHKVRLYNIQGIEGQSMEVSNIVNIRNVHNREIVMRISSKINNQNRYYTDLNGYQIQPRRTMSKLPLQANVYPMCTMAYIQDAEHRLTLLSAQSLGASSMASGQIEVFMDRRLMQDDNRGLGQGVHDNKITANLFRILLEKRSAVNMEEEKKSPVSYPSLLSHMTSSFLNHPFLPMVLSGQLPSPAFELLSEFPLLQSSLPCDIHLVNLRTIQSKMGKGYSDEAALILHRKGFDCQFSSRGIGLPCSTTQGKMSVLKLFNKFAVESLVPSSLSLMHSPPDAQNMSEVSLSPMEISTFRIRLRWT
Experiment: L-PHA cell assay for inhibition of mannosidase II in cells (alkaline phosphatase readout)
Assay type: cell-based, murine
Protocol: The test compound swainsonine hydrochloride is prepared by 0.5 serial dilution of a 40 μM stock in 50 μl of 5% fetal bovine serum (FBS) in minimum essential medium (MEM). To 50 μl of diluted test samples in 96 well plates, 10,000 MDAY-D2 tumor cells in 50 μl of 5% FBS in MEM is added to each well. The samples are incubated at 37° C. overnight in a 5% CO2 incubator. Test wells are prepared in duplicate for the addition of 25 μl/well of either 5% FBS in MEM or 5% FBS in MEM containing 100 μg/ml of L-PHA. Samples are again incubated at 37° C. overnight in a 5% CO2 incubator. The viability and/or proliferation of the cells in each well is measured using phenazine methylsulfate (PMS) and (3(4,5-dimethylthiazol-2-yl-5-(3-carboxymethoxyphenyl)-2,4,sulfophenyl)-2H tetrazolium salt (“MTS”) as described in the instructions of the Promega CellTiter 96 AQ kit. The absorption is read at 490 nm. The loss of L-PHA toxicity is directly related to entry of the drug into the cells and to inhibition of Golgi mannosidase II, and loss of L-PHA binding carbohydrate structures on the cells surface.
Cells. […]
Alkaline Phosphatase Assay. […] After 15-30 min of colour development, absorbance of the chromogenic product para-nitrophenol was measured at […] using a multiwell scanning photometer (Thermomax Multiplate Reader, Molecular Devices). […]

Cl.O[C@H]1[C@H]2[C@H](O)CCCN2C[C@@H]1O [swainsonine hydrochloride, (−)-(1S,2S,8R,8aR)-1,2,8-trihydroxyoctahydro-indolizidine hydrochloride salt]
IC50: 57 ± 10 nM
